In ChEMBL document CHEMBL3045017, “Responses of Spodoptera littoralis larvae to Tunisian plant extracts and to neo-clerodane diterpenoids isolated from Ajuga pseudoiva leaves” (2000):

Experiments:
Format in all cases: functional
[1] = system: Spodoptera littoralis; assay: Antifeedant activity against final stage larvae of Spodoptera littoralis at 1 mg/l after 8 to 24 hr
[2] = system: Spodoptera littoralis; assay: Antifeedant activity against final stage larvae of Spodoptera littoralis at 10 mg/l after 8 to 24 hr
[3] = system: Spodoptera littoralis; assay: Antifeedant activity against final stage larvae of Spodoptera littoralis at 100 mg/l after 8 to 24 hr
[4] = system: Spodoptera littoralis; assay: Antifeedant activity against final stage larvae of Spodoptera littoralis at 0.1 mg/l after 8 to 24 hr

## CC[C@H](C)C(=O)O[C@H]1[C@H](O)C[C@@H]2[C@@](C)([C@@H]3C[C@H]4CCO[C@H]4O3)[C@H](C)C[C@H](OC(C)=O)[C@@]2(COC(C)=O)[C@@]12CO2 [14,15-DIHYDROAJUGAPITIN]
[1]
  AFI: 92.6%
[2]
  AFI: 100%
[3]
  AFI: 100%
[4]
  AFI: 65.9%

## CO[C@@H]1C[C@@H]2C[C@@H]([C@@]3(C)[C@H](C)C[C@H](OC(C)=O)[C@]4(COC(C)=O)[C@@H]3C[C@H](O)[C@H](OC(=O)C(C)C)[C@]43CO3)O[C@@H]2O1 [HATIVENE C]
[1]
  AFI: 63.3%
[2]
  AFI: 100%
[3]
  AFI: 100%
[4]
  AFI: 42.7%

## CO[C@@H]1C[C@@H]2C[C@@H]([C@@]3(C)[C@H](C)C[C@H](OC(C)=O)[C@]4(COC(C)=O)[C@@H]3C[C@@H](O)[C@H](OC(=O)C(C)C)[C@]43CO3)O[C@@H]2O1 [HATIVENE B]
[1]
  AFI: 69%
[2]
  AFI: 100%
[3]
  AFI: 100%
[4]
  AFI: 41.2%

## CO[C@H]1C[C@@H]2C[C@@H]([C@@]3(C)[C@H](C)C[C@H](OC(C)=O)[C@]4(COC(C)=O)[C@@H]3C[C@@H](O)[C@H](OC(=O)C(C)C)[C@]43CO3)O[C@@H]2O1 [HATIVENE A]
[1]
  AFI: 63.3%
[2]
  AFI: 100%
[3]
  AFI: 100%
[4]
  AFI: 37.3%

## CC[C@@H](C)C(=O)O[C@H]1[C@H](O)C[C@@H]2[C@@](C)([C@@H]3C[C@H]4C[C@@H](OC)O[C@H]4O3)[C@H](C)C[C@H](OC(C)=O)[C@@]2(COC(C)=O)[C@@]12CO2 [LUPULIN A]
[1]
  AFI: 74.5%
[2]
  AFI: 100%
[3]
  AFI: 100%
[4]
  AFI: 45%
